The experiment concerns RSV A2 strain. As to the kind of experiment: In vitro CPE (CytoPathic Effect) inhibition effect evaluation test, RSV type A. The experiment is classed as cell-based. An outline of the steps:
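EC50 is the concentration giving 50% inhibition of virus-induced cytopathic effect, fitted by nonlinear regression from CellTiter-Glo 2.0 viability. Compounds in 3-fold series were co-incubated at 37 °C with HEp-2 cells and RSV: A2 strain for 4 days, B (Wash/18537) for 5 days; uninfected wells served as control.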
A general note: Damage to the host cells serves as the signal in cytopathic effect assays.

The mark [1] stands for this setting: human respiratory syncytial virus, inhibitory effect against RSV type A (RSV A2 strain), HEp-2 cells, CPE inhibition, read-out: EC50.
[2] abbreviates: inhibitory effect against RSV type A (RSV A2 strain), HEp-2 cells, CPE inhibition, read-out: EC50.
The mark [3] stands for this setting: human respiratory syncytial virus, HEp-2.

Here are results for 37 compounds from patent US12528790B2, “Amide derivative having antiviral activity” (Shionogi & Co., Ltd., priority 2020, dated 2026).

In general, EC50 refers to the concentration at which the effect is half-maximal.

Each structure is given as a SMILES string. Like-named read-outs stand apart in the source and are kept apart here. A value given as a limit tells only on which side of the number the result lay.

`O=C(NC1(C(=O)O)C2CC3CC(C2)CC1C3)c1cnc(-c2cn(C3CCC(F)(F)CC3)c3cc(OC4CN(c5ncc(F)cn5)C4)ccc23)nc1C(F)(F)F` (stereo not shown) [Compound I-387]: under setting [1], the EC50 is < 10 nM.

`COc1cccc(COc2ccc3c(c2)CCN3c2ncc(C(=O)NC3(C(=O)O)CC4CCC3C4)c(C(F)(F)F)n2)c1` (single isomer, unassigned) [Compound I-17]: the EC50 under setting [2] was < 10 nM.

Take `COc1cccc(COc2ccc3c(n2)C2(CCOCC2)CN3c2ncc(C(=O)NC3(C(=O)O)CCCCC3)c(C(F)(F)F)n2)c1` [Compound I-103]: the EC50 under setting [1] is < 10 nM.

With `O=C(NC1(C(=O)O)C2CC3CC(C2)CC1C3)c1cnc(N2CC3(CCOCC3)c3cc(NS(=O)(=O)c4ccccc4)ccc32)nc1C(F)(F)F` (stereo not shown) [Compound I-342], the EC50 under setting [2] fell in the range of 100 to 5000 nM.

In the case of `O=C(NC1(C(=O)O)C2CC3CC(C2)CC1C3)c1ccc(-c2cn(-c3ccncc3F)c3cc(OC4CCN(c5ncccn5)CC4)ccc23)nc1C(F)(F)F` (stereo not shown) [Compound I-312], the EC50 under setting [2] was < 10 nM.

On to `O=C(NC1(C(=O)O)C2CC3CC(C2)CC1C3)c1ccc(-c2cn(-c3cccc(F)c3)c3cc(OC4CCN(c5ncccn5)CC4)ccc23)nc1C(F)(F)F` (stereo not shown) [Compound I-390], for which the EC50 under setting [1] is < 10 nM.

In the case of `O=C(NC1(C(=O)O)C2CC3CC(C2)CC1C3)c1cnc(-c2cn(Cc3ccccc3)c3cc(OC4CCN(c5ncc(F)cn5)CC4)ccc23)nc1C(F)(F)F` (stereo not shown) [Compound I-446], the EC50 under setting [1] was < 10 nM.

Consider `O=C(NC1(C(=O)O)CCCCC1)c1cnc(N2CC3(CC3)c3cc(Br)ccc32)nc1C(F)(F)F` [Compound I-10], for which the EC50 under setting [1] was in the range of 100 to 5000 nM.

Regarding `CC(F)(F)c1nc(N2CC3(CCCCC3)c3cc(OC4CCN(CC(F)(F)F)CC4)ccc32)nc(C(C)(F)F)c1C(=O)NC1(C(=O)O)C2CC3CC(C2)CC1C3` (stereo not shown) [Compound I-441], under setting [1], the EC50 is 10 to 100 nM.

As to `O=C(NC1(C(=O)O)C2CC3CC(C2)CC1C3)c1cnc(N2C(=O)C3(C=CCC3)c3cc(OC4CCN(c5ncccn5)CC4)ccc32)nc1C(F)(F)F` (racemic) [Compound I-269], the EC50 (human respiratory syncytial virus, HEp-2, 96 h, read-out: EC50, inhibitory effect against RSV type A (CPE inhibition)) was 1.3 nM.

`Cc1ccc2c(c1)C1(CCN(C3COC3)CC1)CN2c1ncc(C(=O)NC2(C(N)=O)C3CC4CC(C3)CC2C4)c(C(F)(F)F)n1` (stereo not shown) [Compound I-181] gave an EC50 under setting [3] of 10 to 100 nM.

In the case of `Cn1nc(-c2ccc(C(=O)NC3(C(=O)O)C4CC5CC(C4)CC3C5)c(C(F)(F)F)n2)c2ccc(OCCC3CCOCC3)cc21` (stereo not shown) [Compound I-127], the EC50 under setting [1] is < 10 nM.

Consider `O=C(NC1(C(=O)O)C2CC3CC(C2)CC1C3)c1ccc(-c2cn(-c3ncccc3F)c3cc(OC4CCN(c5ncccn5)CC4)ccc23)nc1C(F)(F)F` (stereo not shown) [Compound I-310], for which, under setting [2], the EC50 was < 10 nM.

Take `O=C(NC1(C(=O)O)C2CC3CC(C2)CC1C3)c1ccc(-c2cn([C@H]3CC[C@H](C(F)(F)F)CC3)c3cc(OC4CCN(c5ncccn5)CC4)ccc23)nc1C(F)(F)F` (stereo partly shown) [Compound I-286]: the concentration for a half-maximal effect (EC50) under setting [1] is 10 to 100 nM.

As to `O=C(NC1(C(=O)O)C2CC3CC(C2)CC1C3)c1ccc(N2CC3(CCOCC3)c3cc(OC4CCN(c5ncccn5)CC4)ccc32)nc1C(F)(F)F` (stereo not shown) [Compound I-102], the EC50 under setting [2] was < 10 nM.

As for `O=C(NC1(C(=O)O)C2CC3CC(C2)CC1C3)c1cnc(N2CC3(CCOCC3)c3cc(OC4CN(C5COC5)C4)ccc32)nc1C(F)(F)F` (stereo not shown) [Compound I-226], under setting [1], the EC50 was < 10 nM.

For `N#C[C@H]1CC[C@H](n2cc(-c3ccc(C(=O)NC4(C(=O)O)C5CC6CC(C5)CC4C6)c(C(F)(F)F)n3)c3ccc(OC4CCN(c5ncccn5)CC4)cc32)CC1` (stereo partly shown) [Compound I-185], the concentration for a half-maximal effect (EC50) under setting [1] is < 10 nM.

Regarding `COc1ccc2c(n1)C1(CCOCC1)CN2c1ccc(C(=O)NC2(C(=O)O)C3CC4CC(C3)CC2C4)c(C(F)(F)F)n1` (stereo not shown) [Compound I-120], the EC50 under setting [1] was < 10 nM.

Turning to `Cc1ccc2c(c1)C1(CCOCC1)CN2c1ccc(C(=O)NC2(C(=O)O)C3CC4CC(C3)CC2C4)c(C(F)(F)F)n1` (stereo not shown) [Compound I-122], under setting [1], the EC50 was < 10 nM.

On to `O=C(NC1(C(=O)O)C2CC3CC(C2)CC1C3)c1cnc(N2CC3(CCOCC3)c3cc(C4=CCCN(c5ncccn5)C4)ccc32)nc1C(F)(F)F` (stereo not shown) [Compound I-349], for which the EC50 under setting [2] was < 10 nM.

Regarding `O=C(NC1(C(=O)O)C2CC3CC(C2)CC1C3)c1cnc(N2CC3(CCOCC3)c3cc(OC4CCC(n5cccn5)CC4)ccc32)nc1C(F)(F)F` (stereo not shown) [Compound I-143], the EC50 under setting [1] is < 10 nM.

Regarding `O=C(NC1(C(=O)O)C2CC3CC(C2)CC1C3)c1ccc(-c2cn(-c3ccccc3F)c3cc(OC4CCN(c5ncccn5)CC4)ccc23)nc1C(F)(F)F` (stereo not shown) [Compound I-313], the EC50 under setting [2] was < 10 nM.

Take `CN(c1ccc2c(c1)C1(CCOCC1)CN2c1ncc(C(=O)NC2(C(=O)O)C3CC4CC(C3)CC2C4)c(C(F)(F)F)n1)S(=O)(=O)c1ccccc1` (stereo not shown) [Compound I-344]: under setting [2], the EC50 fell in the range of 10 to 100 nM.

Regarding `O=C(NC1(C(=O)O)C2CC3CC(C2)CC1C3)c1cnc(-c2cn(C3CCC(F)(F)CC3)c3cc(OC4CCN(c5nccs5)CC4)ccc23)nc1C(F)(F)F` (stereo not shown) [Compound I-236], the EC50 under setting [1] was < 10 nM.

For `COc1ccc2c(c1)C1(CCOCC1)CN2c1ccc(C(=O)NC2(C(=O)O)C3CC4CC(C3)CC2C4)c(C(F)(F)F)n1` (stereo not shown) [Compound I-121], the 50% effective concentration (EC50) under setting [1] is < 10 nM.

On to `COCCn1cc(-c2ncc(C(=O)NC3(C(=O)O)C4CC5CC(C4)CC3C5)c(C(F)(F)F)n2)c2ccc(OCCC3CCOCC3)cc21` (stereo not shown) [Compound I-130], for which the EC50 under setting [1] is < 10 nM.

Take `O=C(NC1(C(=O)O)C2CC3CC(C2)CC1C3)c1cnc(N2CC3(CCOCC3)c3cc(CCCC4CCOCC4)ccc32)nc1C(F)(F)F` (stereo not shown) [Compound I-114]: the EC50 under setting [1] is < 10 nM.

For the compound `O=C(NC1(C(=O)O)C2CC3CC(C2)CC1C3)c1cnc(N2CC3(CCCCC3)c3cc(O[C@H]4CC[C@H](ON=C5CCC(F)(F)CC5)CC4)ccc32)nc1C(F)(F)F` (stereo partly shown) [Compound I-456], the EC50 under setting [1] fell in the range of 10 to 100 nM.

With `O=C(NC1(C(=O)O)C2CC3CC(C2)CC1C3)c1cnc(N2CC3(CCOCC3)c3cc(C=C4CCN(C(=O)OCc5ccccc5)CC4)ccc32)nc1C(F)(F)F` (stereo not shown) [Compound I-111], under setting [2], the EC50 is < 10 nM.

In the case of `O=C(NC1(C(=O)O)CCC1)c1cnc(N2CCc3cc(OC4CCN(c5ncccn5)CC4)ccc32)nc1C(F)(F)F` [Compound I-46], the EC50 under setting [1] lay within 10 to 100 nM.

With `COc1ccc(CCc2ccc3c(c2)CCN3c2ncc(C(=O)NC3(C(=O)O)CCCCC3)c(C(F)(F)F)n2)cc1` [Compound I-25], the concentration giving a half-maximal response (EC50) under setting [1] lay within 10 to 100 nM.

Consider `O=C(NC1(C(=O)O)C2CC3CC(C2)CC1C3)c1cnc(N2CC3(CCOCC3)c3cc(/C=C/CC4CCOCC4)ccc32)nc1C(F)(F)F` (stereo not shown) [Compound I-110], for which the EC50 under setting [2] was < 10 nM.

As for `O=C(NC1(C(=O)O)C2CC3CC(C2)CC1C3)c1cnc(N2CCc3cc(OCCC4CCOCC4)ccc32)nc1C(F)F` (stereo not shown) [Compound I-157], under setting [1], the concentration for a half-maximal effect (EC50) is < 10 nM.

For the compound `CN1CCC2(CC1)CN(c1ncc(C(=O)NC3(C(=O)O)CCCCC3)c(C(F)(F)F)n1)c1ccc(OCCC3CCOCC3)cc12` [Compound I-62], under setting [3], the EC50 was < 10 nM.

Turning to `O=C(NC1(C(=O)O)CCCCC1)c1cnc(N2CCc3cc(OC4CCN(c5ccccn5)CC4)ccc32)nc1C(F)(F)F` [Compound I-41], under setting [1], the EC50 is < 10 nM.

Consider `COC(=O)N1CCC(NC(=O)c2cnc(N3CC4(CCOCC4)c4cc(OC5CCN(c6ncccn6)CC5)ccc43)nc2C(F)(F)F)(C(=O)O)CC1` [Compound I-145], for which, under setting [1], the EC50 was in the range of 10 to 100 nM.

As for `O=C(NC1(C(=O)O)CCCCC1)c1cnc(N2CC3(CCN(C4CCC4)CC3)c3cc(OCCC4CCOCC4)ccc32)nc1C(F)(F)F` [Compound I-63], the EC50 under setting [3] was < 10 nM.
